The values below come from patent publication US10981932B2, “Macrocyclic indole derivatives” (Bayer Aktiengesellschaft, priority 2016, dated 2021).

Data set [1] deals with A2780. Briefly: Anti-proliferative effect (CellTiter-Glo, 72 h), A2780. Format: cell-based. Conditions: Homo sapiens, A2780, 72 h, A2780 cells, median, read-out: IC50 antiproliferation assay A2780 [M] (median). The method, boiled down: (§1)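 Luminescence from CellTiter-Glo, read 10 min after reagent addition, reports viable cell content after 72 h of compound treatment at 37 °C. A reference plate read at day 0 gives the starting baseline.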
(In general: Cellular ATP, detected with luciferase, serves as a proxy for viable cell number.)

Data set [2] relates to SUDHL5. The experiment in a line: Induction of cytotoxicity (CellTiter-Glo, 5 h), SUDHL5. Conditions: read-out: Cytotox SUDHL5 [M] (median); SUDHL5 cells, cytotoxicity induction, CellTiter-Glo, 5 h incubation, median.
Data set [3] concerns SUDHL10. The experiment in a line: Anti-proliferative effect (CellTiter-Glo, 72 h), SUDHL10. In kind it is cell-based. As to conditions: SUDHL10 cells, antiproliferation, 72 h incubation, median, read-out: Antiproli SUDHL10 [M] (median). The method, boiled down: as §1
In data set [4] the test system is SUDHL5. Briefly: Induction of caspase-3/7 activity (Caspase-Glo 3/7), SUDHL5. In kind it is cell-based. Conditions: caspase-3/7 induction, SUDHL5 cells, 3 h treatment; median. In outline: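 Apoptosis induction measured as caspase-3/7 activity (Caspase-Glo 3/7) in DLBCL lines after 3 h treatment at 37 °C; EC50 derived relative to the reference compound's maximal induction, with C0 fixed at 1.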

Data set [5] deals with T1, BCL-XL (Homo sapiens, UniProt Q07817).
T1 construct: BCL-XL (amino acids 1-212, C-terminal fused to a hexahistidine (6×His) tag); purchased BPS Bioscience (San Diego, Calif., USA); host or cells: E. coli
T1 sequence (Q07817 1-212): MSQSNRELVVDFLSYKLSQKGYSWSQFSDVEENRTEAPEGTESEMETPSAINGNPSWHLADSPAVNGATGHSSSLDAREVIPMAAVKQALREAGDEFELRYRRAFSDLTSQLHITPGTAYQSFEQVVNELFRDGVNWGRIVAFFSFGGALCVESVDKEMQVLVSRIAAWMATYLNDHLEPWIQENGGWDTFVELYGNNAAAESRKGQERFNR
Briefly: Protein-protein interaction assay BCL-XL/Bad BH3 peptide (BCL-XL assay), TR-FRET. Format: binding. Conditions: His-BCL-XL / Bad BH3-derived peptide. How it is done: Protein-Protein Interaction Assay: BCL-XL/Bad BH3 Peptide (BCL-XL Assay)
The dose-dependent inhibition by the compounds described in this invention of the interaction between […] and the BH3 domain of Bad (both human) was determined using a steady state binding competition assay with time-resolved fluorescence energy transfer (TR-FRET) readout. For that purpose BCL-2 (amino acids 1-211, C-terminal fused to a hexahistidine (6×His) tag (SEQ ID NO: 3) and a synthetic Bad BH3-derived peptide of sequence Biotin-PEG2-PEG2-NLWAAQRYGRELRR-NIe-SDEFVDSFKK-amide (SEQ ID NO: 2) served as protein receptor and tracer ligand respectively. The recombinant BCL-2 protein (expressed in E. coli) was purchased from BPS Bioscience (San Diego, Calif., USA). The Bad BH3-derived peptide can be obtained from e.g. Biosyntan (Berlin, Germany).
In the assay 11 different concentrations of each compound (0.1 nM, 0.33 nM, 1.1 nM, 3.8 nM, 13 nM, 44 nM, 0.15 μM, 0.51 μM, 1.7 μM, 5.9 μM and 20 μM) were typically measured as duplicates in the same microtiter plate. For that, 100-fold concentrated DMSO solutions were prepared by serial dilutions (1:3.4) of a 2 mM stock solution in a clear, 384-well microtiter plate (Greiner Bio-One, Frickenhausen, Germany). From there, 50 nl were transferred in a dark test plate (Greiner Bio-One. Frickenhausen, Germany). The assay was initiated by addition of 2 μl of a 2,5-fold concentrated Hs-BCL-XL solution (usually for a 1 nM end concentration in 5 μl reaction volume) in aqueous assay buffer [50 mM Tris/HCl pH 7, 100 mM sodium chloride (NaCl), 50 mM potassium fluoride (KF), 0.005% Tween-20, 2 mM DTT, 0.1% bovine gamma globulin (BGG)] to the compounds in the assay plate. This was followed by a 10-minute incubation step at 22° C. for pre-equilibration of the putative complex between His-BCL-XL and the compounds.
The mixture was incubated in the dark for one hour at 22° C. and then overnight at 4° C. The formation of BCL-XL/Bad complexes was determined by measuring the resonance energy transfer of the anti-His- Eu-cryptate antibody to the streptavidin-XL665 present in the reaction. For that purpose, the fluorescence emission at 620 nm and 665 nm after excitation at 330-350 nm was measured in a TR-FRET measuring instrument, for instance a Rubystar or a Pherastar (both from BMG Lab Technologies, Offenburg, Germany) or a Viewlux (Perkin-Elmer). The ratio of the emission at 665 nm and at 622 nm was used as indicator of the amount of BCL-XL/Bad complexes present.
The resulting data (ratio) were normalized, taking 0% inhibition as the mean value of control measurements (usually 32 data points) where all reagents were included. In this case 50 nl DMSO were used instead of compounds. A 100% inhibition corresponded to the mean value of control measurements (usually 32 data points) where all reagents except BCL-XL were included. IC50 values were determined by regression analysis based on a 4 parameter equation (minimum, maximum, IC50, Hill; Y=Max+(Min−Max)/(1+(X/IC50)^Hill) using the Screener Software (Genedata).

The test system of data set [6] is SUDHL10. The experiment in a line: Induction of cytotoxicity (CellTiter-Glo, 5 h), SUDHL10. As to conditions: read-out: Cytotox SUDHL10 [M] (median); SUDHL10 cells, cytotoxicity induction, CellTiter-Glo, 5 h incubation, median.
In data set [7] the test system is SUDHL5. Briefly: Anti-proliferative effect (CellTiter-Glo, 72 h), SUDHL5. In kind it is cell-based. As to conditions: SUDHL5 cells, antiproliferation, 72 h incubation, median, read-out: Antiproli SUDHL5 [M] (median). The method, boiled down:
as §1

Counter-ions that a name gives are not always drawn. Bounds are passed on as bounds.

As a reminder, the EC50 is the concentration needed to bring the measured effect to its halfway point. Read a low EC50 as an effect from little substance. Consider `CC(C)OCc1nn(C)c2c1-c1cccc3c(CCCOc4cccc5ccccc45)c(C(=O)O)n(c13)CCCCN(C)C2` (single isomer, unassigned) [Example 1-74, 1,14-dimethyl-7-[3-(naphthalen-1-yloxy)propyl]-3-[(propan-2-yloxy)methyl]-10,11,12,13,14,15-hexahydro-1H-pyrazolo[3′,4′:8,9][1,6]diazacycloundecino[10,11,1-hi]indole-8-carboxylic Acid], for which the IC50 in data set [1] was 1.91e-05 M; in data set [2], 9.82e-06 M; in data set [3] (Homo sapiens, SU-DHL10, 72 h) it was 1.17e-05 M; in data set [5] it was more than 20 µM; in data set [6], 1.42e-05 M; in data set [7] (Homo sapiens, SU-DHL-5, 72 h) it was 9.62e-06 M. Moreover, a half-maximal effect in data set [4] (EC50) was put at 8.87 µM.

Regarding `CN1CCCn2c(C(=O)O)c(CCCOc3cccc4ccccc34)c3cccc(c32)-c2c(COc3ccc(N4CCN(S(=O)(=O)N(C)C)CC4)cc3)nn(C)c2C1` (single isomer, unassigned; enantiomer 1) [Example 1-15, (+)-11-({4-[4-(dimethylsulfamoyl)piperazin-1-yl]phenoxy}methyl)-7,9-dimethyl-1-[3-(naphthalen-1-yloxy)propyl]-4,5,6,7,8,9-hexahydropyrazolo[3′,4′:7,8][1,5]diazecino[9,10,1-hi]indole-2-carboxylic Acid (Enantiomer 1)], the IC50 was 7.24e-06 M in data set [1]; 1.38e-06 M in data set [2]; 1.56e-06 M in data set [3]; more than 20 µM in data set [5]; 1.94e-06 M in data set [6]; 1.36e-06 M in data set [7]. The compound further returned an EC50 in data set [4] of 1.17 µM.

On to `Cn1nc(COc2ccc(N3CCN(C(=O)C4CC4)CC3)cc2)c2c1COCCCCn1c(C(=O)O)c(CCCOc3cccc4ccccc34)c3cccc-2c31` (single isomer, unassigned; enantiomer 1) [Example 1-22, 3-({4-[4-(cyclopropylcarbonyl)piperazin-1-yl]phenoxy}methyl)-1-methyl-7-[3-(naphthalen-1-yloxy)propyl]-1,10,11,12,13,15-hexahydropyrazolo[4′,3′:9,10][1,6]oxazacycloundecino[8,7,6-hi]indole-8-carboxylic Acid (Enantiomer 1)], for which the IC50 in data set [1] is 1.83e-05 M; in data set [2] it was 1.37e-06 M; in data set [3], 2.19e-06 M; in data set [5], more than 20 µM; in data set [6], 2.7e-06 M; in data set [7], 1.58e-06 M. This compound also registered a 50% effective concentration (EC50) in data set [4] of 1.56 µM.

Take `Cc1nn(C)c2c1-c1cccc3c(CCCOc4cccc5ccccc45)c(C(=O)O)n(c13)CCCN(C)C2` (single isomer, unassigned; enantiomer 1) [Example 1-31, 7,9,11-trimethyl-1-[3-(naphthalen-1-yloxy)propyl]-4,5,6,7,8,9-hexahydropyrazolo[3′,4′:7,8][1,5]diazecino[9,10,1-hi]indole-2-carboxylic Acid-N-ethylethanamine Salt (Enantiomer 1)]: the IC50 is more than 3.3e-05 M in data set [1]; 4.6e-06 M in data set [2]; 4.55e-06 M in data set [3]; more than 20 µM in data set [5]; 1.61e-05 M in data set [6]; 3.12e-06 M in data set [7]. The compound also showed an EC50 in data set [4] of 4.33 µM.

For the compound `Cc1c2c(nn1C)COCCCCn1c(C(=O)O)c(CCCOc3cccc4ccccc34)c3cccc-2c31` (single isomer, unassigned; enantiomer 1) [Example 1-37, (+)-2,3-dimethyl-7-[3-(naphthalen-1-yloxy)propyl]-2,10,11,12,13,15-hexahydropyrazolo[4′,3′:9,10][1,6]oxazacycloundecino[8,7,6-hi]indole-8-carboxylic Acid (Enantiomer 1)], the IC50 in data set [1] was 3.02e-05 M; in data set [2], 1.92e-06 M; in data set [3], 3e-06 M; in data set [5] it was more than 20 µM; in data set [6], 8.41e-06 M; in data set [7], 2.54e-06 M. In data set [4], this compound came in with an EC50 of 2.44 µM.
